From patent publication US5210193A, “Piperazine derivatives” (American Cyanamid Company, priority 1990, dated 1993)
Values after ≈ are worked out from the molar mass of the structure shown.

Assays:
[1] = system: Enterobacter cloacae VGH 84-39; test: in vitro antibacterial MIC, agar plate dilution; assay type: cell-based; conditions: Enterobacter cloacae, VGH8439, 18 h, 35° C., read-out: MIC
In short: (§1)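 Agar plate dilution on Mueller-Hinton agar, inoculum about 10^4 CFU per spot applied with a Steers replicator. MIC (mcg/ml) is the lowest compound concentration preventing visible growth after 18 h at 35 °C.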

Escherichia coli LL 311 = test: in vitro antibacterial MIC, agar plate dilution; assay type: cell-based; conditions: Escherichia coli, LL311, 18 h, 35° C., read-out: MIC
In short: as §1

[2] = system: Morganella morganii MOR 84-45; test: in vitro antibacterial MIC, agar plate dilution; assay type: cell-based; conditions: Morganella morganii, MOR8445, 18 h, 35° C., read-out: MIC
In short: as §1

[3] = system: Morganella morganii VHG 84-12; test: in vitro antibacterial MIC, agar plate dilution; assay type: cell-based; conditions: Morganella morganii, VHG8412, 18 h, Morganella morganii VHG 84-12 (VGH 84-12 for Example 131), 35° C., read-out: MIC
In short: as §1

[4] = system: Proteus rettgeri CMC 84-41; test: in vitro antibacterial MIC, agar plate dilution; assay type: cell-based; conditions: Providencia rettgeri, CMC8441, 18 h, 35° C., read-out: MIC
In short: as §1

[5] = system: Serratia marcescens IO 83-63; test: in vitro antibacterial MIC, agar plate dilution; assay type: cell-based; conditions: IO8363, 18 hours, 35° C.
In short: as §1

[6] = system: Serratia marcescens MOR 84-41; test: in vitro antibacterial MIC, agar plate dilution; assay type: cell-based; conditions: Serratia marcescens, MOR8441, 18 h, 35° C., read-out: MIC
In short: as §1

[7] = system: Streptococcus faecalis VGH 84-69; test: in vitro antibacterial MIC, agar plate dilution; assay type: cell-based; conditions: Enterococcus faecalis, VGH8469, 18 h, 35° C., read-out: MIC
In short: as §1

[8] = system: Enterobacter cloacae MOR 83-30; test: in vitro antibacterial MIC, agar plate dilution; assay type: cell-based; conditions: MOR8330, 18 hours, 35° C.
In short: as §1

Escherichia coli 311 = test: in vivo antibacterial activity of Example 131, survival of infected mice (Table IV); set-up: species or system Charles River CD-1 female mice
Description: (§2) The in vivo antibacterial activity of 1-cyclopropyl-6-fluoro-7-[3-(fluoromethyl)-1-piperazinyl]-1,4-dihydro-4-oxo-3-quinolinecarboxylic acid (Example 131) was established in the following test.
(§3) Charles River CD-1 female mice, weighing 20±2 g were infected with either Staphylococcus aureus Smith or Escherichia coli 311. A single oral or subcutaneous dose of 1-cyclopropyl-6-fluoro-7-[3-(fluoromethyl)-1-piperazinyl]-1,4-dihydro-4-oxo-3-quinolinecarboxylic acid was administered 1/2 hour after infection. […]

[9] = system: Staphylococcus aureus Smith; test: as above; set-up: species or system Charles River CD-1 female mice
Description: as §2, §3

[10] = subcutaneous, 0.5 mg/kg single dose
[11] = subcutaneous, 1 mg/kg single dose
[12] = subcutaneous, 2 mg/kg single dose

| Compound | MIC [1] [µg/mL] | MIC (Escherichia coli LL 311) [µg/mL] | MIC [2] [µg/mL] | MIC [3] [µg/mL] | MIC [4] [µg/mL] | MIC [5] [µg/mL] | MIC [6] [µg/mL] | MIC [7] [µg/mL] | further results |
| --- | --- | --- | --- | --- | --- | --- | --- | --- | --- |
| CN1CCN(c2c(F)c(F)c3c(=O)c(C(=O)O)cn(C4CC4)c3c2F)CC1 [Example 111, 1Cyclopropyl-5,6,8-trifluoro-1,4-dihydro-7-(4-methyl-1-piperazinyl) -4-oxo-3-quinolinecarboxylic acid] | 0.004 (≈ 0.0105 µM) | 0.015 (≈ 0.0393 µM) | 0.004 (≈ 0.0105 µM) | 0.06 (≈ 0.157 µM) | 0.03 (≈ 0.0787 µM) | 0.25 (≈ 0.656 µM) | 0.06 (≈ 0.157 µM) | 2 (≈ 5.24 µM) | – |
| O=C(O)c1cn(C2CC2)c2cc(N3CCNC(c4cc[nH]n4)C3)c(F)cc2c1=O (stereo not drawn) [Example 121, 1-Cyclopropyl-6-fluoro-1,4-dihydro-4-oxo-7-[3-(1H-pyrazol-3-yl)-1-piperazinyl]-3-quinolinecarboxylic acid] | 0.5 (≈ 1.26 µM) | 0.12 (≈ 0.302 µM) | 0.25 (≈ 0.629 µM) | 4 (≈ 10.1 µM) | 0.5 (≈ 1.26 µM) | – | 1 (≈ 2.52 µM) | 2 (≈ 5.03 µM) | – |
| CCn1cc(C(=O)O)c(=O)c2cc(F)c(N3CCNC(c4cccnc4)C3)cc21 (stereo not drawn) [Example 122] | 2 (≈ 5.05 µM) | 0.25 (≈ 0.631 µM) | 1 (≈ 2.52 µM) | 8 (≈ 20.2 µM) | 0.25 (≈ 0.631 µM) | – | 4 (≈ 10.1 µM) | 8 (≈ 20.2 µM) | – |
| CCn1cc(C(=O)O)c(=O)c2cc(F)c(N3CCNC(c4ccncc4)C3)cc21 (stereo not drawn) [Example 123] | 4 (≈ 10.1 µM) | 1 (≈ 2.52 µM) | 2 (≈ 5.05 µM) | 8 (≈ 20.2 µM) | 2 (≈ 5.05 µM) | – | 8 (≈ 20.2 µM) | 16 (≈ 40.4 µM) | – |
| CN1CCN(c2cc3c(cc2F)c(=O)c(C(=O)O)cn3C2CC2)CC1C1CC1 (stereo not drawn) [Example 125, 1-Cyclopropyl-7-(3-cyclopropyl-4-methyl-1-piperazinyl) -6-fluoro-1,4-dihydro-4-oxo-3-quinolinecarboxylic acid] | 0.5 (≈ 1.3 µM) | 0.06 (≈ 0.156 µM) | 0.5 (≈ 1.3 µM) | 1 (≈ 2.59 µM) | 0.25 (≈ 0.649 µM) | – | 1 (≈ 2.59 µM) | 4 (≈ 10.4 µM) | – |
| O=C(O)c1cn(C2CC2)c2cc(N3CCNC(CF)C3)c(F)cc2c1=O (stereo not drawn) [Example 131, 1-Cyclopropyl-6-fluoro-7-[3-(fluoromethyl)-1-piperazinyl]-1,4-dihydro-4-oxo-3-quinolinecarboxylic acid] | 0.06 (≈ 0.165 µM) | 0.015 (≈ 0.0413 µM) | 0.12 (≈ 0.33 µM) | 0.12 (≈ 0.33 µM) | 0.06 (≈ 0.165 µM) | 0.5 (≈ 1.38 µM) | 0.12 (≈ 0.33 µM) | 1 (≈ 2.75 µM) | MIC [8]: 0.12 µg/mL (≈ 0.33 µM); Survival Ratio 7 Days After Infection (Escherichia coli 311; oral, 0.12 mg/kg single dose): 0/10; Survival Ratio 7 Days After Infection (Escherichia coli 311; oral, 0.25 mg/kg single dose): 1/10; Survival Ratio 7 Days After Infection (Escherichia coli 311; oral, 0.5 mg/kg single dose): 3/10; Survival Ratio 7 Days After Infection (Escherichia coli 311; oral, 1 mg/kg single dose): 7/10; Survival Ratio 7 Days After Infection (Escherichia coli 311; oral, 2 mg/kg single dose): 10/10; Survival Ratio 7 Days After Infection (Escherichia coli 311; subcutaneous, 0.12 mg/kg single dose): 0/10; Survival Ratio 7 Days After Infection (Escherichia coli 311; subcutaneous, 0.25 mg/kg single dose): 2/10; Survival Ratio 7 Days After Infection (Escherichia coli 311; [10]): 7/10; Survival Ratio 7 Days After Infection (Escherichia coli 311; [11]): 10/10; Survival Ratio 7 Days After Infection (Escherichia coli 311; [12]): 10/10; Survival Ratio 7 Days After Infection ([9]; oral, 1 mg/kg single dose): 0/15; Survival Ratio 7 Days After Infection ([9]; oral, 2 mg/kg single dose): 2/15; Survival Ratio 7 Days After Infection ([9]; oral, 4 mg/kg single dose): 10/15; Survival Ratio 7 Days After Infection ([9]; oral, 8 mg/kg single dose): 15/15; Survival Ratio 7 Days After Infection [9, 10]: 0/15; Survival Ratio 7 Days After Infection [9, 11]: 2/15; Survival Ratio 7 Days After Infection [9, 12]: 14/15; Survival Ratio 7 Days After Infection ([9]; subcutaneous, 4 mg/kg single dose): 15/15 |
